Experiments:
Assay type in all cases: cell-based
Conditions in all cases: fluorescent calcium assay
TRPML1 = TRPML1 (Homo sapiens, UniProt Q9GZU1); assay: Fluorescent TRPML1 assay (Fluo4-AM calcium fluorescence in doxycycline-induced HEK-293 Trex cells)
Summary of the method: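 hTRPML1 (mutated for cell-surface expression) in HEK-293 Trex, dox 0.5 ug/mL o/n; Fluo4-AM 1 uM ~60 min, then ~60 min de-esterification, dark; modified Ringer's + 10 mM Ca. Cmpds 20 uM–6 nM final, half-log, n=3. Ex480/Em540; % activity vs ctrls; EC50 by nonlinear regression.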

TRPML2 = molecular target: T1, TRPML2 (Homo sapiens, UniProt Q8IZK6); assay: Fluorescent TRPML2 assay (performed as for TRPML1, substituting the TRPML2 subtype)
T1 construct: expressed in transfected cells
T1 sequence (Q8IZK6 1-566): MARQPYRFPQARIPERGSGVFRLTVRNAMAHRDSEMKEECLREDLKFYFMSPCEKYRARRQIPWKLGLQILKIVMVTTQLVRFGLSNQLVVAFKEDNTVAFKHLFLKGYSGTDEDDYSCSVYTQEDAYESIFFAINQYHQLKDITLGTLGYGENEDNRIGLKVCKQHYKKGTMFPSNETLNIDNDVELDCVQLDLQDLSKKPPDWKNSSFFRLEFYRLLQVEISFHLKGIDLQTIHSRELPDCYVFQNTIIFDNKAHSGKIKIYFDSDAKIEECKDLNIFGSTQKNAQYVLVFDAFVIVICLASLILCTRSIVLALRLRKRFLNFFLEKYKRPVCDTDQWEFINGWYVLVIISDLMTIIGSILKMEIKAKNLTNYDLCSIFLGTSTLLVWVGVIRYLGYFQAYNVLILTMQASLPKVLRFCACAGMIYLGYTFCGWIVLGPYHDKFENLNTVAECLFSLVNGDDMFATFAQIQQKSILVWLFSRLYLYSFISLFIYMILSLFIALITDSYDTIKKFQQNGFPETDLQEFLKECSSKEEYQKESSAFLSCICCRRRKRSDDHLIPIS
Summary of the method: (§1)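 HEK-293 Trex cells with doxycycline-induced (0.5 ug/mL) surface-directed human TRPML subtype, loaded with 1 μM Fluo4-AM, resuspended in Ringer's with 10 mM calcium. Compounds at 20 μM to 6 nM final in half-log steps, triplicate; fluorescence ex 480/em 540; EC50 by non-linear regression versus plate controls.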

TRPML3 = molecular target: T2, TRPML3 (Homo sapiens, UniProt Q8TDD5); assay: Fluorescent TRPML3 assay (performed as for TRPML1, substituting the TRPML3 subtype)
T2 construct: expressed in transfected cells
T2 sequence (Q8TDD5 1-553): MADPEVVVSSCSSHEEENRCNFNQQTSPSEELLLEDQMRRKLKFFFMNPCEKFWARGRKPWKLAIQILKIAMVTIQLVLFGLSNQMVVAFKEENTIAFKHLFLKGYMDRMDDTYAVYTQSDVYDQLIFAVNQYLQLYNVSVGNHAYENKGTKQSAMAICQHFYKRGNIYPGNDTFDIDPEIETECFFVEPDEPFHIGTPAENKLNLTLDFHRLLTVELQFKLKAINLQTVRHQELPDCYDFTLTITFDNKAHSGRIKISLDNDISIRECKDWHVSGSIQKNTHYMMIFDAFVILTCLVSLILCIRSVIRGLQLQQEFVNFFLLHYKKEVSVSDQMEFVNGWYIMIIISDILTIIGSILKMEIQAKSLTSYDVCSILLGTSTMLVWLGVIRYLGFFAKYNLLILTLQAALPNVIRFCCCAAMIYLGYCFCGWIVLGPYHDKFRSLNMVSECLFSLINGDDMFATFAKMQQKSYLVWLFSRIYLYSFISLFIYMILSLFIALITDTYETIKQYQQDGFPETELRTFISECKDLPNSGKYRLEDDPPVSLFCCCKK
Summary of the method: as §1

Sequence of TRPML1 (Q9GZU1 whole entry L15A/L16A/L577A/L578A, form open): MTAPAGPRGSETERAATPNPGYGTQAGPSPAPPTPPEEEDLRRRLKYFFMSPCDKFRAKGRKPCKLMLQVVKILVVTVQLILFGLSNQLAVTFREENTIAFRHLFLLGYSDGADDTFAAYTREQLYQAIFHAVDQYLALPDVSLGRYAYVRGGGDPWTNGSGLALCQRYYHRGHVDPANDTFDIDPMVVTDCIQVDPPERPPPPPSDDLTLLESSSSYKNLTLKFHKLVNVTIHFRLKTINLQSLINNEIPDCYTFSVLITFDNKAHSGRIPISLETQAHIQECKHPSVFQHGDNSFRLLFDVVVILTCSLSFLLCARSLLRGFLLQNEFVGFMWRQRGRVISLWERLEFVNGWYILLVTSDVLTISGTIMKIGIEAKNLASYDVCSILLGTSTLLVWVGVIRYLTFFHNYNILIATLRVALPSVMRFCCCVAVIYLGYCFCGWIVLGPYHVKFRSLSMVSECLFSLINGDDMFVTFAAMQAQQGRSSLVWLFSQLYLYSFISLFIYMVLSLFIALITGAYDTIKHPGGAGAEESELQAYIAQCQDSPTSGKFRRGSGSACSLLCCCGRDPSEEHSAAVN

Structure (SMILES)	EC50 (TRPML1) [nM]	EC50 (TRPML2) [nM]	EC50 (TRPML3) [nM]
C[C@H]1CN(C(=O)OC(C)(C)C)CCN1c1ncnc2c1c(-c1ccccn1)cn2-c1ccc(F)c(Cl)c1 [Compound 154, tert-butyl (S)-4-(7-(3-chloro-4-fluorophenyl)-5-(pyridin-2-yl)-7H-pyrrolo[2,3-d]pyrimidin-4-yl)-3-methylpiperazine-1-carboxylate]	< 100	< 100	< 100
CC(C)(C)OC(=O)N1CCN(c2nccc3c2c(C2CC2)cn3-c2ccc(Cl)cc2)CC1 [Compound 156, tert-butyl 4-(1-(4-chlorophenyl)-3-cyclopropyl-1H-pyrrolo[3,2-c]pyridin-4-yl)piperazine-1-carboxylate]	100 to 500	100 to 500	< 100
C[C@@H]1CN(C(=O)OC(C)(C)C)CCN1c1ncnc2c1c(C1CCCC1)cn2-c1cccc(Cl)c1 [Compound 157, tert-butyl (R)-4-(7-(3-chlorophenyl)-5-cyclopentyl-7H-pyrrolo[2,3-d]pyrimidin-4-yl)-3-methylpiperazine-1-carboxylate]	100 to 500	100 to 500	< 100
Cc1ccc(Cl)cc1-n1cc(-c2ccccn2)c2c(N3CCN(C(=O)OC(C)(C)C)CC3C)ncnc21 (stereo not drawn) [Compound 159, tert-butyl 4-(7-(5-chloro-2-methylphenyl)-5-(pyridin-2-yl)-7H-pyrrolo[2,3-d]pyrimidin-4-yl)-3-methylpiperazine-1-carboxylate]	100 to 500	100 to 500	100 to 500
Cc1ccc(Cl)cc1-n1cc(-c2cnccn2)c2c(N3CCN(C(=O)OC(C)(C)C)CC3C)ncnc21 (stereo not drawn) [Compound 163, tert-butyl 4-(7-(5-chloro-2-methylphenyl)-5-(pyrazin-2-yl)-7H-pyrrolo[2,3-d]pyrimidin-4-yl)-3-methylpiperazine-1-carboxylate]	500 to 2000	500 to 2000	100 to 500
CC1CN(C(=O)OC(C)(C)C)CCN1c1ncnc2c1c(C1CC1)cn2-c1cncc(Cl)c1 (stereo not drawn) [Compound 164, tert-butyl 4-(7-(5-chloropyridin-3-yl)-5-cyclopropyl-7H-pyrrolo[2,3-d]pyrimidin-4-yl)-3-methylpiperazine-1-carboxylate]	< 100	100 to 500	< 100
Cc1cncc(-n2cc(C3CC3)c3c(N4C[C@@H](C)N(C(=O)OC(C)(C)C)C[C@@H]4C)ncnc32)c1 [Compound 165, tert-butyl (2R,5S)-4-(5-cyclopropyl-7-(5-methylpyridin-3-yl)-7H-pyrrolo[2,3-d]pyrimidin-4-yl)-2,5-dimethylpiperazine-1-carboxylate]	100 to 500	500 to 2000	100 to 500
C[C@@H]1CN(c2ncnc3c2c(C2CC2)cn3-c2cncc(C(F)(F)F)c2)[C@@H](C)CN1C(=O)OC(C)(C)C [Compound 167, tert-butyl (2R,5S)-4-(5-cyclopropyl-7-(5-(trifluoromethyl)pyridin-3-yl)-7H-pyrrolo[2,3-d]pyrimidin-4-yl)-2,5-dimethylpiperazine-1-carboxylate]	100 to 500	500 to 2000	< 100
C[C@@H]1CN(c2ncnc3c2c(C2CC2)cn3-c2cccnc2)[C@@H](C)CN1C(=O)OC(C)(C)C [Compound 168, tert-butyl (2R,5S)-4-(5-cyclopropyl-7-(pyridin-3-yl)-7H-pyrrolo[2,3-d]pyrimidin-4-yl)-2,5-dimethylpiperazine-1-carboxylate]	500 to 2000	> 2000	500 to 2000
CC(C)(CF)OC(=O)N1CCN(c2ncnc3c2c(-c2ccccc2F)cn3-c2cccnc2)CC1 [Compound 172, 1-fluoro-2-methylpropan-2-yl 4-(5-(2-fluorophenyl)-7-(pyridin-3-yl)-7H-pyrrolo[2,3-d]pyrimidin-4-yl)piperazine-1-carboxylate]	500 to 2000	> 2000	500 to 2000

Continued, values first:

EC50 (TRPML1) [nM]	EC50 (TRPML2) [nM]	EC50 (TRPML3) [nM]	Structure (SMILES)
100 to 500	100 to 500	100 to 500	CC(C)(C)OC(=O)N1CCN(c2ncnc3c2c(-c2ccccn2)cn3-c2ccc(F)c(Cl)c2)CC1 [Compound 151, tert-butyl 4-(7-(3-chloro-4-fluorophenyl)-5-(pyridin-2-yl)-7H-pyrrolo[2,3-d]pyrimidin-4-yl)piperazine-1-carboxylate]
500 to 2000	> 2000	500 to 2000	CCOC(=O)N1CCN(c2ncnc3c2c(-c2ccccn2)cn3-c2ccc(F)c(Cl)c2)CC1 [Compound 152, ethyl 4-(7-(3-chloro-4-fluorophenyl)-5-(pyridin-2-yl)-7H-pyrrolo[2,3-d]pyrimidin-4-yl)piperazine-1-carboxylate]
100 to 500	500 to 2000	100 to 500	CCOC(=O)N1CCN(c2ncnc3c2c(-c2ccccn2)cn3-c2ccc(F)c(Cl)c2)[C@@H](C)C1 [Compound 155, ethyl (S)-4-(7-(3-chloro-4-fluorophenyl)-5-(pyridin-2-yl)-7H-pyrrolo[2,3-d]pyrimidin-4-yl)-3-methylpiperazine-1-carboxylate]
< 100	< 100	< 100	C[C@H]1CN(C(=O)OC(C)(C)C)CCN1c1ncnc2c1c(C1CCCC1)cn2-c1cccc(Cl)c1 [Compound 158, tert-Butyl (S)-4-(7-(3-chlorophenyl)-5-cyclopentyl-7H-pyrrolo[2,3-d]pyrimidin-4-yl)-3-methylpiperazine-1-carboxylate]
100 to 500	100 to 500	< 100	Cc1c(Cl)cccc1-n1cc(-c2ccccn2)c2c(N3CCN(C(=O)OC(C)(C)C)CC3C)ncnc21 (stereo not drawn) [Compound 160, tert-butyl 4-(7-(3-chloro-2-methylphenyl)-5-(pyridin-2-yl)-7H-pyrrolo[2,3-d]pyrimidin-4-yl)-3-methylpiperazine-1-carboxylate]
100 to 500	500 to 2000	100 to 500	Cc1nccnc1-c1cn(-c2cccc(Cl)c2)c2ncnc(N3CCN(C(=O)OC(C)(C)C)CC3C)c12 (stereo not drawn) [Compound 161, tert-butyl 4-(7-(3-chlorophenyl)-5-(3-methylpyrazin-2-yl)-7H-pyrrolo[2,3-d]pyrimidin-4-yl)-3-methylpiperazine-1-carboxylate]
500 to 2000	500 to 2000	100 to 500	Cc1c(Cl)cccc1-n1cc(-c2cnccn2)c2c(N3CCN(C(=O)OC(C)(C)C)CC3C)ncnc21 (stereo not drawn) [Compound 162, tert-butyl 4-(7-(3-chloro-2-methylphenyl)-5-(pyrazin-2-yl)-7H-pyrrolo[2,3-d]pyrimidin-4-yl)-3-methylpiperazine-1-carboxylate]
100 to 500	500 to 2000	100 to 500	CCc1cncc(-n2cc(C3CC3)c3c(N4CCN(C(=O)OC(C)(C)C)CC4)ncnc32)c1 [Compound 166, tert-butyl 4-(5-cyclopropyl-7-(5-ethylpyridin-3-yl)-7H-pyrrolo[2,3-d]pyrimidin-4-yl)piperazine-1-carboxylate]
< 100	500 to 2000	< 100	C[C@@H]1CN(c2ncnc3c2c(-c2ccccc2)cn3-c2cccnc2)[C@@H](C)CN1C(=O)OC(C)(C)C [Compound 169, tert-butyl (2R,5S)-2,5-dimethyl-4-(5-phenyl-7-(pyridin-3-yl)-7H-pyrrolo[2,3-d]pyrimidin-4-yl)piperazine-1-carboxylate]
100 to 500	500 to 2000	< 100	C[C@H]1CN(C(=O)OC(C)(C)C)CCN1c1ncnc2c1c(-c1ccccc1)cn2-c1cnn(C)c1 [Compound 170, tert-butyl (S)-3-methyl-4-(7-(1-methyl-1H-pyrazol-4-yl)-5-phenyl-7H-pyrrolo[2,3-d]pyrimidin-4-yl)piperazine-1-carboxylate]
500 to 2000	> 2000	> 2000	CC(C)(C)OC(=O)N1CCN(c2nccc3c2c(-c2ccccc2F)cn3-c2cncnc2)CC1 [Compound 171, tert-butyl 4-(3-(2-fluorophenyl)-1-(pyrimidin-5-yl)-1H-pyrrolo[3,2-c]pyridin-4-yl)piperazine-1-carboxylate]
